{"source": "paper PMC7821381", "about": "“Multi-Targeted Anticancer Activity of Imidazolate Phosphane Gold(I) Compounds by Inhibition of DHFR and TrxR in Breast Cancer Cells” (Frontiers in Chemistry, 2021)", "key": {"[1]": {"system": "thioredoxin reductase (TrxR)", "details": "MDA-MB231, 12 h treatment, 16 μM (maximum inhibition); control 3.01 ± 0.01", "method": "The assay was performed as previously reported (Galassi et al., [2012]) in 0.2 M Na, K-phosphate buffer (pH 7.4) containing 2 mM EDTA. The assay contained 0.12 mM NADPH and different amounts of cell lysate. The reaction was initiated by the addition of 3 mM 5,5′-dithiobis (2-nitrobenzoic acid) (DTNB) and the increase of absorbance was monitored at 412 nm over 5 min at 25°C.\nFig. 4S. Effects of gold(I) compounds 5 and 6 on redox enzyme thioredoxine reductase in MDA-MB231 cancer cells. The cells were incubated for 12 hours with different amount of tested compounds 5 and 6. After incubation, cells were washed twice with PBS and lysed. TrxR activity was tested by measuring NADPH-dependent reduction of DTNB (Galassi et al, 2012)."}, "Human apoTF (ATF)": {"target": "T1, Human apoTF (ATF) (Homo sapiens, UniProt P02787)", "T1 construct": "purchased Sigma Aldrich", "T1 sequence (P02787 20-698)": "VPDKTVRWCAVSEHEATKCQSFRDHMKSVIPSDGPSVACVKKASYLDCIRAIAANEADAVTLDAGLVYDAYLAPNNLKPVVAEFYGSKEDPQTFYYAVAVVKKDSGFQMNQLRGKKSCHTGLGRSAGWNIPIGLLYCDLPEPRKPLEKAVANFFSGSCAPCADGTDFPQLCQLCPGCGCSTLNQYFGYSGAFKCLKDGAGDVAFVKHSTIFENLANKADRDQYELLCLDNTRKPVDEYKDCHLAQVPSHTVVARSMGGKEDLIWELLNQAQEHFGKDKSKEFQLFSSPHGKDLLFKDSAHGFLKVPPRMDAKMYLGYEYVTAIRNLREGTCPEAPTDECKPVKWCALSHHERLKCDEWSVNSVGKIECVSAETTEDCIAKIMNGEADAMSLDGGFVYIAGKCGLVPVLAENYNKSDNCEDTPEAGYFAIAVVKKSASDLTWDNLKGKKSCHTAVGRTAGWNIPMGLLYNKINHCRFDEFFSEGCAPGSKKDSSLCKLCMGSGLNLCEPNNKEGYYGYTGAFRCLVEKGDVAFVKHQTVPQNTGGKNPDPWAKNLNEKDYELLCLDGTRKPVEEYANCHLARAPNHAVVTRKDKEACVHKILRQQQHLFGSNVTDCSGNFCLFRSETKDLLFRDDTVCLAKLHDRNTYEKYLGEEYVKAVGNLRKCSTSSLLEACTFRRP", "test": "Transferrin (ATF) fluorescence quenching", "assay_type": "binding", "details": "Stern-Volmer constant, Tris-HCl pH 7.4, 25°C", "method": "Human apoTF (ATF) was purchased from Sigma Aldrich and its concentration was determined by measuring the absorbance at 278 nm (ε = 92,300 M^−1 cm^−1). To evaluate if compounds 5 and 6 were able to bind to ATF in vitro, fluorescence spectra were recorded from 300 nm to 450 nm upon tryptophan excitation at 285 nm. Fluorimetric titrations were performed by titrating a 2 mL sample (prepared in 10 mM Tris-HCl buffer pH 7.4, 10 mM NaCl) containing human ATF (12.5 μM) with incremental additions of different aliquots of gold-complexes (5 mM in DMSO). Protein fluorescence intensity was recorded after each successive addition of complex solution and equilibration (5 min). The value of Stern Volmer constants of the different metal complexes to ATF were evaluated following Equation 3 and fluorescent values were corrected by Equation 2. All titrations were performed at room temperature (25°C) and averages between two trials are reported."}, "DAPI-ct-DNA complex": {"system": "DAPI-ct-DNA complex", "test": "Minor groove displacement assay with DAPI (DAPI-ct-DNA)", "assay_type": "binding, calf", "details": "competitive DAPI displacement, fluorescence quenching, pH 7.4", "method": "The changes in the emission spectra of DAPI complex with the DNA in 10 mM tris-HCl buffer at pH 7.4, 10 mM NaCl, were monitored upon addition of increasing concentrations of gold-compounds 5 and 6 at room temperature. Fluorescence quenching data were evaluated after excitation of DAPI-ct-DNA complex at 338 nm and recording the spectra from 400 to 600 nm. Values of Ksv constants were evaluated using Equation 3 and the quenching fluorescence values obtained were corrected according to Equation 2."}, "A17 cells": {"system": "A17 cells", "test": "MTT cell viability assay on A17 cells", "assay_type": "cell-based, murine", "details": "A17, 48 h, ± S. D.", "source_text": "Human MDA-MB-231 (ER–/PR–/HER2–) and SK-BR-3 (ER–/PR–/HER2+) cells were obtained from American Type Culture Collection (Rockville, MD) and cultured in Dulbecco's Modified Essential Medium (DMEM, Gibco, Life Technologies) supplemented with 10% fetal bovine serum (FBS, Gibco, Life Technologies) and 1% penicillin–streptomycin (Gibco, Life Technologies). A17 cells were established from a spontaneous lobular carcinoma that arose in an FVB/neuT mouse (Galiè et al., [2005]), and maintained in DMEM plus 20% FBS and 1% penicillin-streptomycin. Cells were cultured at 37°C under humidified atmosphere with 5% CO2.\nStock solutions were prepared for each gold(I) compound (50 mM) using dimethyl sulfoxide (DMSO) (Sigma-Aldrich) as solvent. The effects of gold(I) compounds on SKBR3, A17 and MDA-MB231 cells viability were evaluated by seeding, respectively, 10, ^*10^3, 2.5 ^*10^3, 7, ^*10^3 cells/well in 96 wells plates in complete medium (DMEM supplemented with FBS) and compared to those of cisplatin. The day after, fresh medium containing vehicle alone (DMSO, 1 % v/v final concentration) or increasing concentrations of each compound ranging from 0.1 to 100 μM was added. Cell viability was determined using a MTT [3-(4,5-dimethylthiazol-2-yl)-2,5-diphenyl-2H-tetrazolium bromide Sigma Aldrich, St. Louis, MO] assay, which is based on the conversion of MTT to formazan crystals by mitochondrial enzymes, after 24, 48, and 72 h. The formazan deposits were dissolved in DMSO and the absorbance of each well was measured at 540 nm in Multiskan Ascent 96/384 Plate Reader. Each drug concentration was evaluated with 8 replicates and each experiment was repeated three times. At the end of the experiments a dose–response curve was plotted, and the IC50 concentrations were determined. […] Quantitative data are presented as means ± SEM. […]\nIC50 values were calculated for each of the cell lines tested, by fitting the concentration-effect curves data obtained in the three experiments with the sigmoid-Emax model using nonlinear regression, weighted by the reciprocal of the square of the predicted effect."}}}
{"substance": "4,5-dicyano-imidazolate-1yl-gold(I)-(triphenylphosphane) [Compound 5]", "values": [{"measurement": "Specific enzymatic activity of TrxR", "setting": "[1]", "result": "1.59 ± 0.03 (16 μM) mU/mg"}, {"measurement": "ATF Ksv", "setting": "Human apoTF (ATF)", "result": "1.93 ± 0.44 10^4 M^−1"}, {"measurement": "DAPI-ct-DNA Ksv", "setting": "DAPI-ct-DNA complex", "result": "6.12 ± 0.09 10^3 M^−1"}, {"measurement": "IC50", "setting": "A17 cells", "result": "16.2 ± 0.59", "unit": "µM"}]}
{"substance": "4,5-dichloro-imidazolate-1yl-gold(I)-(triphenylphosphane) [Compound 6]", "values": [{"measurement": "Specific enzymatic activity of TrxR", "setting": "[1]", "result": "1.95 ± 0.06 (16 μM) mU/mg"}, {"measurement": "ATF Ksv", "setting": "Human apoTF (ATF)", "result": "1.51 ± 0.55 10^4 M^−1"}, {"measurement": "DAPI-ct-DNA Ksv", "setting": "DAPI-ct-DNA complex", "result": "4.98 ± 0.08 10^3 M^−1"}, {"measurement": "IC50", "setting": "A17 cells", "result": "14.4 ± 0.7", "unit": "µM"}]}
